# Laboratory results published in patent US20090203775A1, “Novel compound and a novel microorganism for producing the novel compound” (Haiyi Biotech Pte, Ltd., priority 2005, published 2009).
# Tests used:
# [1] = tested on: L1210 (mouse lymph leukemia cells); experiment: Survival of mice transplanted with L1210; format: in vivo, BDF-1 mice; conditions: d 1, d 6, s.c.; for duration of survival (Ave): control 15
# Description: Aims: To observe the effect of prolonging the survival of the compound of formula (I) on mice transplanted with L1210, a kind of mouse lymph leukemia cells.
# Methods: 18 BDF-1 mice, male. L1210 (mouse lymph leukemia cells) were administered by i.p. injection, at the dose of 1×10^5 per mouse. Mice were divided into three groups randomly, with six animals per group. The test group was administered with the drug on day 1 and day 6 by subcutaneous (s.c.) injection. An equal volume of saline was administered in control animals.
# Dosage: Test group 1: 50 mg/kg the lyophilized powder injection of the compound of formula (I) was administered by s.c. injection, • Test group 2: 25 mg/kg the lyophilized powder injection of the compound of formula (I) was administered by s.c. injection, • Test group 3: 12.5 mg/kg the lyophilized powder injection of the compound of formula (I) was administered by s.c. injection.
# B. subtilis = experiment: Germicidal effect, MTT assay, B. subtilis; format: cell-based
# Description: (§1) Aims: To observe the germicidal effect of the compound of formula (I) on T. rubrum, T. mentagrophytes, C. albicans and B. subtilis. Method: […] Concentration of the samples were: (1) 2 mg/ml; (2) 1 mg/ml; (3) 0.5 mg/ml; (4) 0.25 mg/ml; Volume of the sample: 50 ul/well.
# [2] = tested on: B16 (mouse melanocytoma cells); experiment: MTT assay, percentage of killing, B16; format: cell-based; conditions: 24~48 hours
# Description: (§2) 1. Method: 3-[4,5-dimethyl(thiazol-2-yl)-3,5-diphery] tetradium bromide (MTT) assay. 2. Culture medium: RPMI-1640 medium containing 2% calf serum 3. Apparatus: (1) CO2 incubator, Sherton USA; (2) 318MC Enzyme analysis machine, SANCO Equipments Company Ltd. 4. Conditions of the culture: Temp. 37° C.; Concentration of CO2: 4.7%, culture duration: 24˜48 hours.
# T. rubrum = experiment: Germicidal effect, MTT assay, T. rubrum; format: cell-based
# Description: as §1
# [3] = tested on: T. rubrum, T. mentagrophytes, C. albicans and B. subtilis; experiment: Germicidal effect, MTT assay, summary statement for all strains; format: cell-based; conditions: ≧50 μg/well; summary for the strains of Table 8
# Description: as §1
# [4] = tested on: L1210 (mouse leukemia cells); experiment: MTT assay, percentage of killing, L1210; format: cell-based; conditions: 24~48 hours
# Description: as §2
# C. albicans = experiment: Germicidal effect, MTT assay, C. albicans; format: cell-based
# Description: as §1
structure (smiles),measurement,setting,value
O=C1CC[C@H](c2ccc(O)c3c2C(=O)C2OC2[C@H]3O)c2cccc(O)c21 (some centres unmarked) [compound of formula (I)],prolonging days,[1]; 12.5 mg/kg,5 days
same,rate of prolonging (%),[1]; 12.5 mg/kg,33%
same,duration of survival (Ave),[1]; 12.5 mg/kg,20
same,prolonging days,[1]; 25 mg/kg,7 days
same,rate of prolonging (%),[1]; 25 mg/kg,47%
same,duration of survival (Ave),[1]; 25 mg/kg,22
same,prolonging days,[1]; 50 mg/kg,13 days
same,rate of prolonging (%),[1]; 50 mg/kg,87%
same,duration of survival (Ave),[1]; 50 mg/kg,28
same,Gemicidal effect (killing rate),B. subtilis; 12.5 μg/ml,65%
same,Gemicidal effect (killing rate),B. subtilis; 25 μg/ml,85%
same,Gemicidal effect (killing rate),B. subtilis; 50 μg/ml,99%
same,Gemicidal effect (killing rate),B. subtilis; 100 μg/ml,100%
same,percentage of killing,"[2]; B16, 312.5 ng/ml",1.06%
same,percentage of killing,"[2]; B16, 625 ng/ml",6.37%
same,percentage of killing,"[2]; B16, 1.25 ug/ml",0%
same,percentage of killing,"[2]; B16, 2.5 ug/ml",51.75%
same,percentage of killing,"[2]; B16, 5 ug/ml",72.53%
same,Gemicidal effect (killing rate),T. rubrum; 12.5 μg/ml,58%
same,Gemicidal effect (killing rate),T. rubrum; 25 μg/ml,80%
same,Gemicidal effect (killing rate),T. rubrum; 50 μg/ml,99%
same,Gemicidal effect (killing rate),T. rubrum; 100 μg/ml,100%
same,antifungal effects,[3],99.9%
same,percentage of killing,"[4]; L1210, 312.5 ng/ml",0%
same,percentage of killing,"[4]; L1210, 625 ng/ml",0%
same,percentage of killing,"[4]; L1210, 1.25 ug/ml",17.02%
same,percentage of killing,"[4]; L1210, 2.5 ug/ml",94.18%
same,percentage of killing,"[4]; L1210, 5 ug/ml",97.00%
same,Gemicidal effect (killing rate),C. albicans; 12.5 μg/ml,50%
same,Gemicidal effect (killing rate),C. albicans; 25 μg/ml,75%
same,Gemicidal effect (killing rate),C. albicans; 50 μg/ml,99%
same,Gemicidal effect (killing rate),C. albicans; 100 μg/ml,99.5%
